Patent publication US11673853B2, “Small molecule AMPK activators” (University of Pittsburgh—Of the Commonwealth System of …, priority 2016, dated 2023)

Experiments:
AMPKα1 and AMPKα2 mRNA = experiment: AMPK mRNA analysis in Beas2b cells; type: cell-based, Human; conditions: glucose-free media, 18 h
Description: (§1) FIG. 4. (A) Beas2b cells were cultured in DMEM 2% media with glucose for 24 h before switching to glucose-free media. Cells were then exposed to Compound 12 in a dose dependent manner for 18 h before being collected for immunoblotting. (B) Beas2b cells were cultured in DMEM 2% media with glucose for 24 h before Compound 12 treatment in a dose dependent manner. After 18 h, cells were then collected for immunoblotting. (C) Beas2b cells were cultured in DMEM 2% media with glucose for 24 h before switching to glucose-free media. Cells were then exposed to Compound 12 for 18 h before being collected for mRNA analysis. (D) 50K PBMC cells were cultured in 96 well plates before being exposed to Compound 12 for 4 h. Cells were then treated with LPS (10 ng/ml) for additional 2 h. Media were then collected and IL-1b concentration was determined by ELISA.
(§2) A SAR study was performed by constructing analogs of Compound 1. […] Compound 12 was further tested in PBMCs. Briefly, PBMCs were treated with Compound 12 at various concentrations for 4 h before exposure to LPS (10 ng/ml) for 2 h.

mice = experiment: Cecal ligation and puncture (CLP)-induced sepsis model; type: in vivo; conditions: 10 mg/kg i.p., 24 h
Description: FIG. 6. Mice were anesthetized prior to the cecal ligation and puncture (CLP) procedure. Compound 12 (10 mg/kg) was then administered immediately afterwards through an intraperitoneal (i.p.) injection. After 24 h, mice were euthanized and blood was collected for assays of IL-6, TNF, and IL1-β levels. Peritoneal fluid was obtained for determination of bacterial counts after CLP in mice. The lungs were also lavaged with saline, harvested, and then homogenized. Lavage cytokine secretion (C-E), protein (A), cell counts (B) were measured. The data represent n=4-5 mice/group, *P<0.05 Compound 12 versus vehicle. Presence of AMPK and pAMPK was also determined (F).
Compound 12 was examined in a model of cecal ligation and puncture (CLP)-induced sepsis.

PBMC cells [1] = experiment: LPS-induced cytokine release from PBMCs (ELISA); type: cell-based
Description: as §1
(§3) FIG. 10. (A) 50K PBMC cells were cultured in 96 well plates before being exposed to Compound 23 for 18 h. Cells were then treated with LPS (10 ng/ml) for additional 4 h. Media were then collected and TNF and IL-1b concentration were determined by ELISA. (B) PBMC cells (1 mL at 1.0×10^6/ml) were treated with Compound 23 (5 μM) for 18 h. Cells were then treated with 100 ng/ml LPS for 4 h. Cytokine release was monitored by the human cytokine array (R&D systems). The results from a cytokine array dot blot were quantitated and graphed.
as §2
(§4) Compound 23 was tested in in vitro inflammatory assays. 50K PBMC cells were cultured in 96 well plates before being exposed to Compound 23 for 18 h. Cells were then treated with LPS (10 ng/ml) for additional 4 h. Media were then collected and assayed for TNF and IL-1b. […] Cytokine arrays were used to profile which cyotokine/chemokines were regulated by Compound 23.

pAMPK = pAMPK immunoblotting in Beas2B cells (Table 1); type: cell-based; conditions: Homo sapiens, BEAS-2B, DMEM media without glucose, compounds 18 h
Description: Additional compounds in Table 1 were or can be prepared according to the above-described Examples. Human bronchial epithelial cells (Beas2B) were seeded in 6-well plates for 18 h. Cells were then exposed to DMEM media without glucose and compounds at various concentrations for an additional 18 h before being collected for immunoblotting.

Diet-induced obese mice [2] = experiment: Diet-induced obese mice study, 14 days dosing; type: in vivo; conditions: once daily for 14 days; BC1618 8 or 40 mg/kg/d
Description: FIG. 12. Diet-induced obese mice were fed a high-fat diet for 19 weeks and then injected with vehicle or drug once daily for 14 days. Daily body weights (in grams) of the mice are shown.
Diet-induced obese mice arrived from Jackson Labs and recovered two weeks in satellite housing before study. Mice were 25 weeks old and fed a high-fat diet for 19 weeks at the time of study. Body weight, fat and lean mass were measured and mice were grouped in order to match body weights at ˜46.5 g average per group prior to study. Following the acute dosing trial, mice were injected with vehicle or drug 1× daily between noon and 2 pm for 14 days (BC1618-L (low dose)=8 mg/kg/d, BC1618-H (high dose)=40 mg/kg/d). Body weight was recorded daily (FIGS. 12-15). FIG. 12 and FIG. 13 show body weight in grams and FIG. 14 and FIG. 15 show body weight as a percentage of body weight on day 0 (DO).
FIGS. 16-19 show the change (A) in body weight (BW) from day 0 to day 14 expressed as change in grams (FIG. 16 and FIG. 17) or as percent change from day 0 (FIG. 18 and FIG. 19).
Body composition was measured at DO in the body weight matched animals and again at day 14 (D14). Data in FIGS. 20-23 represent the change in fat mass from DO to D14 expressed as grams (FIG. 20 and FIG. 21) or as percent change (FIG. 22 and FIG. 23).
Data in FIGS. 24-27 represent the change in lean mass from DO to D14 expressed as grams (FIG. 24 and FIG. 25) and as percent change (FIG. 26 and FIG. 27). Overall there appears to be a modest effect of vehicle and drug to reduce lean mass over 14 days, but no differences between groups. Changes in BW over 14 days therefore reflect changes in fat mass and not lean mass.

PBMC cells [3] = experiment: Cytokine array of LPS-treated PBMC cells; type: cell-based, human; conditions: 5 μM 18 h, then LPS 100 ng/ml 4 h
Description: as §3, §4

[4] = system: High-fat diet fed C57BL6J mice; experiment: Acute oral dosing study in high-fat diet fed mice; type: in vivo
Diet-induced obese mice [5] = experiment: Hyperinsulinemic euglycemic clamp study; type: in vivo; conditions: BC1618 20 mg/kg twice
Description: FIG. 30. Diet-induced obese mice were dosed 1× with vehicle or BC1618 (20 mg/kg) prior to overnight fast, followed by a 1× (20 mg/kg) morning dose prior to hyperinsulinemic euglycemic clamp. Body weight measurements are shown.
FIG. 31. From the same study as in FIG. 30, fasting plasma glucose and glucose infusion rate values are shown.
FIG. 32. From the same study as in FIG. 30, glucose infusion rate values are shown.
Diet-induced obese mice were dosed 1× with vehicle or BC1618 (20 mg/kg) prior to overnight fast, followed by a 1× (20 mg/kg) morning dose prior to hyperinsulinemic euglycemic clamp. […] Plasma glucose levels were matched during the clamp (FIG. 31, upper portion). The glucose infusion rate (GIR) required to maintain euglycemia in the 1618 treated mice was approximately 2-fold greater than VEH treated mice (FIG. 31, lower portion and average over last 40 min in FIG. 32, P<0.001), indicating improved whole-body insulin sensitivity.

[6] = compound 18 h, then LPS 10 ng/ml 4 h

Structure (SMILES)	mRNA levels of both AMPKα1 and AMPKα2 (AMPKα1 and AMPKα2 mRNA)	CLP-induced lung injury (BAL cytokines, protein and cell counts) (mice)	CLP-induced secretion of circulating proinflammatory cytokines (IL-6, TNF, IL1-β) (mice)	bacterial count (mice; peritoneal fluid)	LPS induced IL-1 release from PBMCs (PBMC cells [1]; compound 4 h, then LPS 10 ng/ml 2 h)	IC50 (pAMPK) [µg/mL]	body weight loss (daily body weight) (Diet-induced obese mice [2])	change in body weight from day 0 to day 14 (Diet-induced obese mice [2])	change in fat mass from D0 to D14 (Diet-induced obese mice [2])	cytokines/chemokines regulated (cytokine array) (PBMC cells [3])	glucose tolerance (intraperitoneal glucose tolerance test) ([4]; 1 g/kg body weight glucose, data not shown)	body weight at the time of study ([4]; two oral doses (AICAR 200 mg/kg, BC1618 20 mg/kg))	reduction of fasting plasma glucose compared to vehicle ([4]; two oral doses (AICAR 200 mg/kg, BC1618 20 mg/kg), 2 h after second dose, P=0.08) [%]	body weight prior to clamp (Diet-induced obese mice [5])	glucose infusion rate (GIR) required to maintain euglycemia, relative to VEH treated mice (Diet-induced obese mice [5]; P<0.001)	fasting plasma glucose (Diet-induced obese mice [5]; before clamp, vehicle 111±3, P=0.12) [mg/dL]	IL-1b in media (PBMC cells [1]; [6])	TNF in media (PBMC cells [1]; [6])
OC(COc1ccc(F)cc1)CN(Cc1ccccc1)Cc1ccccc1 (stereo not shown) [Compound 12]	effectively decreased	effectively reduce severities	significantly attenuated	without affecting bacterial count	potently inhibit	< 1	–	–	–	–	–	–	–	–	–	–	–	–
OC(COc1ccc(C(F)(F)F)cc1)CN(Cc1ccccc1)Cc1ccccc1 (stereo not shown) [Compound 23]	–	–	–	–	–	< 1	effect of AICAR and BC1618 on body weight loss	an effect due to AICAR or BC1618	apparent additive effect	decreases CD40, GMCSF, IL-1b, IL-1ra, IL-2, IL-12, IL-13, ITAC and TNF	no difference in glucose tolerance	no differences in body weight	25	no difference in body weight	approximately 2 fold	100 ± 6	dose dependently decreased	dose dependently decreased
